ChEMBL document CHEMBL1671859, “bla(IMP-4) in different genetic contexts in Enterobacteriaceae isolates from Australia” (2008)
Converted amounts (≈) assume the structure as drawn.

How the values were obtained:
Assay type in all cases: functional
Citrobacter amalonaticus [1] = assay: Antibacterial activity against Citrobacter amalonaticus isolate Ca3927 harboring IncL/M plasmid and blaIMP-4-qacG2-aacA4-catB3 array by Etest method
Morganella morganii [2] = assay: Antibacterial activity against Morganella morganii isolate Mm1229 harboring IncL/M plasmid and blaIMP-4-qacG2-aacA4-catB3 array by Etest method
Klebsiella oxytoca [3] = assay: Antibacterial activity against Klebsiella oxytoca isolate Ko1156 harboring IncL/M plasmid and blaIMP-4-qacG2-aacA4-catB3 array by Etest method
Serratia marcescens [4] = assay: Antibacterial activity against Serratia marcescens isolate Sm2723 harboring IncL/M plasmid and blaIMP-4-qacG2-aacA4-catB3 array by Etest method
Serratia marcescens [5] = assay: Antibacterial activity against Serratia marcescens isolate Sm201 harboring IncA/C plasmid and blaIMP-4-qacG2-aacA4-catB3 array by Etest method
Klebsiella pneumoniae [6] = assay: Antibacterial activity against Klebsiella pneumoniae isolate Kp204 harboring IncA/C plasmid and blaIMP-4-qacG2-aacA4-catB3 array by Etest method
Serratia marcescens [7] = assay: Antibacterial activity against Serratia marcescens isolate Sm220 harboring IncA/C plasmid and blaIMP-4-qacG2-aacA4-catB3 array by Etest method
Klebsiella pneumoniae [8] = assay: Antibacterial activity against Klebsiella pneumoniae isolate Kp38009 harboring IncL/M plasmid and blaIMP-4-qacG2-aacA4-catB3 array by Etest method
Serratia marcescens [9] = assay: Antibacterial activity against Serratia marcescens isolate Sm203 harboring IncA/C plasmid and blaIMP-4-qacG2-aacA4-catB3 array by Etest method
Escherichia coli [10] = assay: Antibacterial activity against Escherichia coli isolate Ec211 harboring IncA/C plasmid and blaIMP-4-qacG2-aacA4-catB3 array by Etest method
Escherichia coli [11] = assay: Antibacterial activity against Escherichia coli isolate Ec158 harboring IncA/C plasmid and blaIMP-4-qacG2-aacA4-catB3 array by Etest method
Klebsiella pneumoniae [12] = assay: Antibacterial activity against Klebsiella pneumoniae isolate Kp3799 harboring IncL/M plasmid and blaIMP-4-qacG2-aacA4-catB3 array by Etest method
Morganella morganii [13] = assay: Antibacterial activity against Morganella morganii isolate Mm38009 harboring IncL/M plasmid and blaIMP-4-qacG2-aacA4-catB3 array by Etest method
Klebsiella oxytoca [14] = assay: Antibacterial activity against Klebsiella oxytoca isolate Ko238 harboring IncA/C plasmid and blaIMP-4-qacG2-aacA4-catB3 array by Etest method
Citrobacter freundii = assay: Antibacterial activity against Citrobacter freundii isolate Cf1614 harboring IncL/M plasmid and blaIMP-4-qacG2-aacA4-catB3 array by Etest method
Klebsiella pneumoniae [15] = assay: Antibacterial activity against Klebsiella pneumoniae isolate Kp38045 harboring IncL/M plasmid and blaIMP-4-qacG2-aacA4-catB3 array by Etest method
Klebsiella pneumoniae [16] = assay: Antibacterial activity against Klebsiella pneumoniae isolate Kp1945 harboring IncL/M plasmid and blaIMP-4-qacG2-aacA4-catB3 and dfrA12-orfF-aadA2 arrays by Etest method
Acinetobacter baumannii = assay: Antibacterial activity against Acinetobacter baumannii isolate AbN450 harboring […]-qacG2-aacA4-catB3 array by Etest method
Escherichia coli [17] = assay: Antibacterial activity against Escherichia coli isolate Ec9381 harboring IncL/M plasmid and blaIMP-4-qacG2-aacA4-catB3 array by Etest method
Citrobacter amalonaticus [18] = assay: Antibacterial activity against Citrobacter amalonaticus isolate Ca38009 harboring IncL/M plasmid and blaIMP-4-qacG2-aacA4-catB3 array by Etest method
Klebsiella pneumoniae [19] = assay: Antibacterial activity against Klebsiella pneumoniae isolate Kp211 harboring IncA/C plasmid and blaIMP-4-qacG2-aacA4-catB3 array by Etest method
Morganella morganii [20] = assay: Antibacterial activity against Morganella morganii isolate Mm1614 harboring IncL/M plasmid and blaIMP-4-qacG2-aacA4-catB3 array by Etest method
Citrobacter amalonaticus [21] = assay: Antibacterial activity against Citrobacter amalonaticus isolate Ca1614 harboring IncL/M plasmid and blaIMP-4-qacG2-aacA4-catB3 array by Etest method
Klebsiella oxytoca [22] = assay: Antibacterial activity against Klebsiella oxytoca isolate Ko0426 harboring IncL/M plasmid and blaIMP-4-qacG2-aacA4-catB3 array by Etest method
Citrobacter koseri = assay: Antibacterial activity against Citrobacter koseri isolate Ck211 harboring IncA/C plasmid and blaIMP-4-qacG2-aacA4-catB3 array by Etest method
Klebsiella pneumoniae [23] = assay: Antibacterial activity against Klebsiella pneumoniae isolate Kp4614
Acinetobacter = assay: Antibacterial activity against Acinetobacter isolate A74510 harboring blaIMP-4-qacG2-aacA4-catB3 array by Etest method
Serratia marcescens [24] = assay: Antibacterial activity against Serratia marcescens isolate Sm211 harboring IncA/C plasmid and blaIMP-4-qacG2-aacA4-catB3 array by Etest method
Klebsiella pneumoniae [25] = assay: Antibacterial activity against Klebsiella pneumoniae isolate Kp2730 harboring IncL/M plasmid and blaIMP-4-qacG2-aacA4-catB3 and dfrA12-orfF-aadA2 arrays by Etest method
Klebsiella pneumoniae [26] = assay: Antibacterial activity against Klebsiella pneumoniae isolate Kp1239 harboring IncL/M plasmid and blaIMP-4-qacG2-aacA4-catB3 array by Etest method
Klebsiella pneumoniae [27] = assay: Antibacterial activity against Klebsiella pneumoniae isolate Kp7564 harboring IncL/M plasmid and blaIMP-4-qacG2-aacA4-catB3 array by Etest method
Serratia marcescens [28] = assay: Antibacterial activity against Serratia marcescens isolate Sm265 harboring IncA/C plasmid and blaIMP-4-qacG2-aacA4-catB3 array by Etest method
Klebsiella pneumoniae [29] = assay: Antibacterial activity against Klebsiella pneumoniae isolate Kp149 harboring IncA/C plasmid and blaIMP-4-qacG2-aacA4-catB3 array by Etest method
Klebsiella pneumoniae [30] = assay: Antibacterial activity against Klebsiella pneumoniae isolate Kp266 harboring IncA/C plasmid and blaIMP-4-qacG2-aacA4-catB3 array by Etest method
Escherichia coli [31] = assay: Antibacterial activity against Escherichia coli isolate Ec221 harboring IncA/C plasmid and blaIMP-4-qacG2-aacA4-catB3 array by Etest method
Citrobacter youngae = assay: Antibacterial activity against Citrobacter youngae isolate CyB38 harboring blaIMP-4-qacG2-aacA4-catB3 array by Etest method

SMILES	MIC (Citrobacter amalonaticus [1]) [µg/mL]	MIC (Morganella morganii [2]) [µg/mL]	MIC (Klebsiella oxytoca [3]) [µg/mL]	MIC (Serratia marcescens [4]) [µg/mL]	MIC (Serratia marcescens [5]) [µg/mL]	MIC (Serratia marcescens [7]) [µg/mL]	MIC (Serratia marcescens [9]) [µg/mL]	MIC (Escherichia coli [10]) [µg/mL]	MIC (Escherichia coli [11]) [µg/mL]	MIC (Morganella morganii [13]) [µg/mL]	MIC (Klebsiella oxytoca [14]) [µg/mL]	MIC (Citrobacter freundii) [µg/mL]	MIC (Acinetobacter baumannii) [µg/mL]	MIC (Escherichia coli [17]) [µg/mL]	MIC (Citrobacter amalonaticus [18]) [µg/mL]	MIC (Morganella morganii [20]) [µg/mL]	MIC (Citrobacter amalonaticus [21]) [µg/mL]	MIC (Klebsiella oxytoca [22]) [µg/mL]	MIC (Citrobacter koseri) [µg/mL]	MIC (Acinetobacter) [µg/mL]	also measured
C[C@H]1[C@H](NC(=O)/C(=N\OC(C)(C)C(=O)O)c2csc(N)n2)C(=O)N1S(=O)(=O)O [AZTREONAM]	> 16	≤ 1	≤ 1	≤ 1	≤ 1	≤ 1	≤ 1	≤ 1	≤ 1	≤ 1	≤ 1	> 16	> 16	≤ 1	≤ 1	4 (≈ 9.19 µM)	> 16	≤ 1	≤ 1	> 16	MIC (Klebsiella pneumoniae [6]): ≤ 1 µg/mL; MIC (Klebsiella pneumoniae [8]): ≤ 1 µg/mL; MIC (Klebsiella pneumoniae [12]): ≤ 1 µg/mL; MIC (Klebsiella pneumoniae [15]): ≤ 1 µg/mL; MIC (Klebsiella pneumoniae [16]): ≤ 1 µg/mL; MIC (Klebsiella pneumoniae [19]): ≤ 1 µg/mL; MIC (Klebsiella pneumoniae [23]): ≤ 1 µg/mL; MIC (Serratia marcescens [24]): ≤ 1 µg/mL; MIC (Klebsiella pneumoniae [25]): ≤ 1 µg/mL; MIC (Klebsiella pneumoniae [26]): ≤ 1 µg/mL; MIC (Klebsiella pneumoniae [27]): ≤ 1 µg/mL; MIC (Serratia marcescens [28]): ≤ 1 µg/mL; MIC (Klebsiella pneumoniae [29]): > 16 µg/mL; MIC (Klebsiella pneumoniae [30]): ≤ 1 µg/mL; MIC (Escherichia coli [31]): ≤ 1 µg/mL; MIC (Citrobacter youngae): ≤ 1 µg/mL
O=C(O)c1cn(C2CC2)c2cc(N3CCNCC3)c(F)cc2c1=O [CIPROFLOXACIN]	≤ 0.5	≤ 0.5	≤ 0.5	> 2	> 2	2 (≈ 6.04 µM)	2 (≈ 6.04 µM)	≤ 0.5	≤ 0.5	≤ 0.5	≤ 0.5	≤ 0.5	> 2	≤ 0.5	≤ 0.5	≤ 0.5	≤ 0.5	≤ 0.5	≤ 0.5	> 2	MIC (Serratia marcescens [24]): 2 µg/mL (≈ 6.04 µM); MIC (Serratia marcescens [28]): ≤ 0.5 µg/mL; MIC (Escherichia coli [31]): ≤ 0.5 µg/mL; MIC (Citrobacter youngae): > 2 µg/mL
